Test results taken from US20260035367A1 (Celgene Corporation, priority 2021, published 2026).
Structures can show the parent of a compound that is named as a salt. Where two headings read alike, the source gives them in different places.

Key:
[1] = tested on: IL-2 secretion by human effector memory T cells (TEM); assay: Effector memory T cells IL-2 release assay (CD3/CD28 stimulation, HTRF IL-2 detection); format: cell-based; conditions: Homo sapiens, T-cell, 24 h
Method in brief: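 IL-2 released into the supernatant was quantified by HTRF after 24 h at 37 °C in 5% CO2. The cells were stimulated primary human TEM from donor buffy coats, treated with a 10-point semi-log compound series (0.1% DMSO final, triplicates).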

[2] = molecular target: T1, Recombinant human PKC-theta (His-tagged 362-706) (Homo sapiens, UniProt Q04759); assay: PKC-theta inhibition assay (HTRF KinEASE kit); format: biochemical; conditions: STK substrate 525 nM
T1 construct: Recombinant human PKC-theta (His-tagged 362-706); His
T1 sequence (Q04759 362-706): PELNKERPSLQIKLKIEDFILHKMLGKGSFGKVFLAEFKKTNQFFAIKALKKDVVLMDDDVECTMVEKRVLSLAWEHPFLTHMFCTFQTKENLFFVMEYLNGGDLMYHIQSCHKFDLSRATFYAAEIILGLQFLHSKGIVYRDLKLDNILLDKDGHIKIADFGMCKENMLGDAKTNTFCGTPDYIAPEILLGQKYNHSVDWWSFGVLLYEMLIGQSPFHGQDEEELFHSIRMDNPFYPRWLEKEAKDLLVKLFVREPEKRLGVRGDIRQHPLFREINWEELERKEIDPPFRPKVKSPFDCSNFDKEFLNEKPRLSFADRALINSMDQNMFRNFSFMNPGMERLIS
Method in brief: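 IC50 values were from 4-parameter logistic fits of percent inhibition, based on acceptor/donor HTRF ratios over 10 semi-log compound doses. Kinase reactions, started with substrate plus ATP, ran 30 min at 25 °C in buffer supplemented with 10 mM MgCl2, 1 mM DTT and 0.1% Tween 20; detection lasted 2 h.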

[3] = molecular target: T2, Recombinant human PKC-delta (His-tagged 345-676) (Homo sapiens, UniProt Q05655); assay: PKC-delta inhibition assay (HTRF KinEASE kit); format: biochemical; conditions: ratio, PKC-theta vs PKC-delta HTRF; for PKC-theta/PKC-delta selectivity (binned): binned A to G
T2 construct: PKC-delta (His-tagged 345-676); His
T2 sequence (Q05655 345-676): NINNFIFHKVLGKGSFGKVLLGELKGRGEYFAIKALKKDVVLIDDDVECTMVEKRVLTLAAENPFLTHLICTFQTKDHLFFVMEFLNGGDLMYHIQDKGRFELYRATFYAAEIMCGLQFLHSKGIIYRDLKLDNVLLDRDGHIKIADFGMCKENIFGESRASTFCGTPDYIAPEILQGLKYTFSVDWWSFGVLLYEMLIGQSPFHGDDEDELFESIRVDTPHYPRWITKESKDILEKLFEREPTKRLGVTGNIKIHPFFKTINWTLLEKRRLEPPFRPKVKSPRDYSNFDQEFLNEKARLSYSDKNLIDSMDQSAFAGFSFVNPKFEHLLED

[4] = binned A to G, read-out: PKC-theta IL2 pIC50 (binned) (converted)
[5] = read-out: PKC-theta IL2 pIC50 (converted)
[6] = ATP 6.5 μM, binned A to H, read-out: PKC-theta HTRF pIC50 (binned) (converted)
[7] = ATP 6.5 μM, read-out: PKC-theta HTRF pIC50 (converted)

| Structure (SMILES) | IC50 [1, 4] [nM] | IC50 [1, 5] [nM] | IC50 [2, 6] [nM] | IC50 [2, 7] [nM] | PKC-theta/PKC-delta selectivity [3] | PKC-theta/PKC-delta selectivity (binned) [3] | IC50 ([2]; PKC-theta HTRF pIC50 (binned), ATP 6.5 μM, binned A to H) [nM] | IC50 ([2]; PKC-theta HTRF pIC50, ATP 6.5 μM) [nM] |
| --- | --- | --- | --- | --- | --- | --- | --- | --- |
| CN1CCN(c2cccc(-c3ccnc4[nH]c(=O)[nH]c34)c2)CC1 [Example 17] | > 1000 | 10000 | > 1000 | 5010 | 2 | F (a ratio of between 1 and 5) |  |  |
| CC1C(=O)Nc2nccc(-c3cc(F)cc(N4CCNCC4)c3)c21 (centres unmarked) [Example 18] | 100 to 316 | 200 | 10 to 31.6 | 25.1 | 3 | F (a ratio of between 1 and 5) |  |  |
| CC1C(=O)Nc2nccc(-c3cccc(CN4CCNCC4)c3)c21 (centres unmarked) [Example 19] | > 1000 | 2000 | 100 to 316 | 200 | 2 | F (a ratio of between 1 and 5) |  |  |
| O=c1[nH]c2nccc(-c3cccc(CN4CCNCC4)c3)c2[nH]1 [Example 20] | > 1000 | 10000 | > 1000 | 3980 |  | G (a ratio of 0 to 1) |  |  |
| CCC1C(=O)Nc2nccc(-c3cccc(N4CCNCC4)c3)c21 (centres unmarked) [Example 21] | 316 to 1000 | 1000 | 316 to 1000 | 316 | 1 | F (a ratio of between 1 and 5) |  |  |
| CC1C(=O)Nc2nccc(-c3cccc(CN(C)C)c3)c21 (centres unmarked) [Example 22] | > 1000 | 1580 | 316 to 1000 | 501 | 1 | F (a ratio of between 1 and 5) |  |  |
| CC1(C)C(=O)Nc2nccc(-c3cccc(N4CCNCC4)c3)c21 [Example 23] | > 1000 | 1580 | 100 to 316 | 100 | 2 | F (a ratio of between 1 and 5) |  |  |
| CC1C(=O)Nc2ncnc(-c3cccc(N4CCNCC4)c3)c21 (centres unmarked) [Example 24] | > 1000 | 2000 | 316 to 1000 | 1000 | 1 | F (a ratio of between 1 and 5) |  |  |
| CC1C(=O)Nc2nccc(-c3cc(N4CCNCC4)cc(C(F)(F)F)c3)c21 (centres unmarked) [Example 25] | 316 to 1000 | 501 | 31.6 to 100 | 50.1 | 7 | E (a ratio of between 5 and 10) |  |  |
| CC1(C)C(=O)Nc2nccc(-c3cccc(N(CC4COC4)C4CCCNC4)c3)c21 (centres unmarked) [Example 26] | > 1000 | 2510 | 100 to 316 | 158 | 2 | F (a ratio of between 1 and 5) |  |  |
| CC1C(=O)Nc2nccc(-c3cccc(C(=O)N4CCNCC4)c3)c21 (centres unmarked) [Example 27] | > 1000 | 10000 | 316 to 1000 | 1000 | 1 | F (a ratio of between 1 and 5) |  |  |
| CC1(C)C(=O)Nc2nccc(-c3ccnc(N4CCNCC4)c3)c21 [Example 28] | > 1000 | 10000 | > 1000 | 1260 | 1 | G (a ratio of 0 to 1) |  |  |
| CC1(C)C(=O)Nc2nccc(-c3cc(F)cc(N4CCNCC4)c3)c21 [Example 29] | 316 to 1000 | 501 | 31.6 to 100 | 31.6 | 1 | F (a ratio of between 1 and 5) |  |  |
| C[C@H]1CNCCN1c1cc(F)cc(-c2ccnc3c2C(C)(C)C(=O)N3)c1 [Example 30] | 316 to 1000 | 794 | 31.6 to 100 | 31.6 | 2 | F (a ratio of between 1 and 5) |  |  |
| C[C@H]1CNCCN1c1cc(-c2ccnc3c2C(C)(C)C(=O)N3)ccn1 [Example 31] | > 1000 | 6310 | 316 to 1000 | 501 | 1 | F (a ratio of between 1 and 5) |  |  |
| CC1(C)C(=O)Nc2nccc(-c3cc(F)cc(CN4CCNCC4)c3)c21 [Example 32, 4-[3-fluoro-5-(piperazin-1-ylmethyl)phenyl]-3,3-dimethyl-1H-pyrrolo[2,3-b]pyridin-2-one; dihydrochloride] | > 1000 | 3980 |  |  | 3 | F (a ratio of between 1 and 5) | 100 to 316 | 200 |

| Structure (SMILES) | IC50 [1, 4] [nM] | IC50 [1, 5] [nM] | IC50 [2, 6] [nM] | IC50 [2, 7] [nM] | PKC-theta/PKC-delta selectivity [3] | PKC-theta/PKC-delta selectivity (binned) [3] | IC50 ([2]; PKC-theta HTRF pIC50 (binned), ATP 6.5 μM, binned A to H) [nM] | IC50 ([2]; PKC-theta HTRF pIC50, ATP 6.5 μM) [nM] |
| --- | --- | --- | --- | --- | --- | --- | --- | --- |
| CCC1(C)C(=O)Nc2nccc(-c3cc(F)cc(N4CCNCC4)c3)c21 (centres unmarked) [Example 33] | 316 to 1000 | 794 | 31.6 to 100 | 50.1 | 2 | F (a ratio of between 1 and 5) |  |  |
| O=C1Nc2nccc(-c3cc(F)cc(N4CCNCC4)c3)c2C12CC2 [Example 34] | > 1000 | 3980 | > 1000 | 1000 | 2 | F (a ratio of between 1 and 5) |  |  |
| O=C1Nc2nccc(-c3cc(F)cc(N4CCNCC4)c3)c2C12CCC2 [Example 35] | 316 to 1000 | 398 | 31.6 to 100 | 39.8 | 3 | F (a ratio of between 1 and 5) |  |  |
| O=C1Nc2nccc(-c3cc(F)cc(N4CCNCC4)c3)c2C12CCCC2 [Example 36] | 100 to 316 | 251 | 10 to 31.6 | 20 | 1 | F (a ratio of between 1 and 5) |  |  |
| CC1(C)C(=O)Nc2nccc(-c3cc(N4CCNCC4)cc(C(F)(F)F)c3)c21 [Example 37] | > 1000 | 1260 | 31.6 to 100 | 100 | 5 | F (a ratio of between 1 and 5) |  |  |
| CC1(C)C(=O)Nc2nccc(-c3cccc(N4CCNCC4)n3)c21 [Example 38] | 100 to 316 | 158 | 3.16 to 10 | 10 | 4 | F (a ratio of between 1 and 5) |  |  |
| C[C@H]1CNCCN1c1cccc(-c2ccnc3c2C(C)(C)C(=O)N3)c1 [Example 39] | > 1000 | 2510 | 100 to 316 | 200 | 1 | F (a ratio of between 1 and 5) |  |  |
| CC1(C)C(=O)Nc2nccc(-c3cc(Cl)cc(N4CCNCC4)c3)c21 [Example 40] | 316 to 1000 | 398 | 31.6 to 100 | 31.6 | 4 | F (a ratio of between 1 and 5) |  |  |
| CC1(C)C(=O)Nc2nccc(-c3cccc(N(CC4COC4)C4CCNCC4)c3)c21 [Example 41] | > 1000 | 2000 | 31.6 to 100 | 79.4 | 3 | F (a ratio of between 1 and 5) |  |  |
| CC1(C)C(=O)Nc2nccc(-c3cccc(S(=O)(=O)N4CCNCC4)c3)c21 [Example 42] | > 1000 | 10000 | > 1000 | 2000 | 1 | F (a ratio of between 1 and 5) |  |  |
| CC1(C)C(=O)Nc2nccc(-c3cccc(C4(CO)CCNC4)c3)c21 (centres unmarked) [Example 43] | 316 to 1000 | 631 | 3.16 to 10 | 7.94 | 3 | F (a ratio of between 1 and 5) |  |  |
| CC1(C)C(=O)Nc2nccc(-c3cccc(C4(CN)COC4)c3)c21 [Example 44] | > 1000 | 10000 | 100 to 316 | 200 | 4 | F (a ratio of between 1 and 5) |  |  |
| CC1(C)C(=O)Nc2nccc(-c3cccc(C4CCNCC4)c3)c21 [Example 45] | > 1000 | 3980 | 100 to 316 | 200 | 2 | F (a ratio of between 1 and 5) |  |  |
| CC1(O)C(=O)Nc2nccc(-c3cc(F)cc(N4CCNCC4)c3)c21 (centres unmarked) [Example 46] | 100 to 316 | 251 | 10 to 31.6 | 12.6 | 3 | F (a ratio of between 1 and 5) |  |  |
| CC1(C)C(=O)Nc2nccc(-c3cccc(OC4CCNCC4)c3)c21 [Example 47] | > 1000 | 2510 | 100 to 316 | 316 | 2 | F (a ratio of between 1 and 5) |  |  |
